Laboratory results from patent US20150132405A1, “SYNERGISTIC COMPOSITIONS OF MONOCHLOROUREA AND MODIFIED MONOCHLOROUREAS” (HERCULES INCORPORATED, priority 2013, published 2015).
In brackets after ≈: the same amount, converted by molar mass. Read-outs that look alike come from different tables or passages of the source.

Test system: Escherichia coli
Assay: Minimal Inhibitory Concentration (MIC), two-fold dilution series in 96 well microplate
Type: cell-based
Settings: for MIC (QA), used alone: first biocide used alone
From the text: While there are various methods known to individuals skilled in the art for measuring levels of antimicrobial activity, in the following examples the endpoint used is known as the Minimal Inhibitory Concentration, or MIC. This is the lowest concentration of a substance or substances which can achieve complete inhibition of growth.
In order to determine the Minimal Inhibitory Concentration, a two-fold dilution series of the biocide is constructed with the dilutions being made in growth media. The dilutions are made in a 96 well microplate such that each well has a final volume of 280 μl of media and biocide. The first well has, for example, a concentration of 1000 ppm biocide, the second 500 ppm, the third 250 ppm, and so forth, with the 12th and final well in the row having no biocide at all and serving as a positive growth control. After the dilution series is constructed the wells receive an inoculum of microbe suspended in growth media such that the final concentration of microbes in the well is ˜5×10^5 cfu/ml. In these examples the test microbe used is Escherichia coli. The cultures are incubated at an appropriate temperature for 18-24 hours, and the wells scored as positive or negative for growth based on a visual examination for turbid wells.

[1] = Escherichia coli, second biocide used alone, complete inhibition of growth, 18-24 hours, read-out: MIC (QB), used alone
[2] = second biocide used alone, complete inhibition of growth, 18-24 hours
[3] = Escherichia coli, used alone, Table 26
[4] = complete inhibition of growth, 18-24 hours

Molecule: CC1(C)C(=O)N(Cl)C(=O)N1Br [BCDMH, 1-bromo-3-chloro-5,5-dimethylhydantoin]
- MIC [1]: 61 µg/mL (≈ 253 µM)

Molecule: O=[N+]([O-])C(Br)(CO)CO [BNPD, 2-bromo-2-nitropropane-1,3,-diol]
- MIC (QB), used alone [2]: 24 ppm

Molecule: N#CC(Br)(Br)C(N)=O [DBNPA, 2,2-dibromo-3-nitrilopropionamide]
- MIC [1]: 11 µg/mL (≈ 45.5 µM)

Molecule: CNC(=O)N(C)Cl [DMCU, dimethyl monochlorourea]
- DMCU MIC (QA), used alone [3]: 10 ppm
- DMCU MIC (QA), used alone (Escherichia coli, used alone, Table 27): 10 ppm
- DMCU MIC (QA), used alone (Escherichia coli, used alone, Table 28): 10 ppm
- MIC (QA), used alone [4]: 10 ppm
- MIC (QB), used alone [2]: 10 ppm

Molecule: O=CCCCC=O [GLUT, glutaraldehyde]
- MIC [1]: 45 µg/mL (≈ 449 µM)
- MIC (Escherichia coli, used alone, Table 28, read-out: GLUT MIC (QB), used alone): 45 µg/mL (≈ 449 µM)

Molecule: OO [H2O2, hydrogen peroxide]
- MIC (QB), used alone [2]: 1000 ppm

Molecule: N#CSCSC#N [MBT, methylene bisthiocyanate]
- MIC (Escherichia coli, read-out: MIC (QB), used alone): 8 µg/mL (≈ 61.4 µM)

Molecule: NCl [MCA, monochloramine]
- MIC (QB), used alone [2]: 47 ppm

Molecule: NC(=O)NCl [MCU, monochlorourea]
- MIC (QA), used alone [4]: 100 ppm
- MIC (QB), used alone [2]: 100 ppm

Molecule: N-alkyl (C12-C16)-N,N-dimethyl benzylalkonium chloride [QAC]
- QAC MIC (QB), used alone [3]: 27 ppm
- MIC (QB), used alone [2]: 27 ppm

Molecule: methyl monochlorourea [MMCU]
- MIC (QB), used alone [2]: 16 ppm
